Measured values reported in patent US20100069487A1, “METHOD FOR THE TREATMENT OF PSORIASIS” (REDOX PHARMACEUTICAL CORPORATION, priority 2006, published 2010).

Assays:
[1] = tested on: Zinc-fingers in which the Zinc is tetrahedrally coordinated to cysteines and histidines; conditions: cysteine/histidine-coordinated Zinc; cited from earlier work
[2] = in vivo
From the text: • 1. It was recently discovered that the transcription factor Zinc-finger protein Gli-similar (Glisl) is found only in psoriatic and not in the epidermis of healthy skin^2. The expression of this protein is restricted to the suprabasal level of the psoriatic epidermis. […] The mode of action of the drug involves displacement Zinc from the protein by the axial ligation of the drug's cobalt (III) complex to the nitrogen of the imidazole ring of the histidine residues. The zinc-finger bearing protein is thus inactivated^4. • We have discovered that Doxovir (CTC-96) will inactivate Glis1 in Psoriatic epidermis and as a result may selectively retard the abnormal proliferation and differentiation of psoriatic keratinocytes. • 2. There have been several reports of the possibility that Human Papilloma Viruses (HPVs) are associated with at least certain manifestations of psoriasis (e.g. ^5,6,7,8). Papillomaviruses proliferate and affect the differentiation and proliferation of keratinocytes. The possible role of the virus (particularly HPV type 5) in the etiology or the maintenance of the abnormal differentiation of psoriatic human skin keratinocytes has thus been postulated. • JunB protein, a component of the ubiquitous transcription factor AP-1, regulates cell proliferation, differentiation, stress responses and cytokine expression in various tissues. […]

[3] = tested on: type II collagen-induced arthritis; conditions: mice; cited from earlier work
[4] = tested on: Papillomaviruses; conditions: cited from earlier work

Structure (SMILES): CC(/C=C(/C)[O-])=NCCN=C(C)/C=C(/C)[O-].Cc1ncc[nH]1.Cc1ncc[nH]1.[Br-].[Co+3] [Doxovir]
- disruption of structure and function of Zinc-fingers [1]: selectively disrupts the structure and function of Zinc-fingers
- adverse effects on intact skin [2]: no adverse effects on intact skin
- therapeutic activity for type II collagen-induced arthritis [3]: proven to have therapeutic activity
- anti-papillomavirus activity [4]: distinct anti-papillomavirus activity
